Results taken from patent publication US20250074871A1, “PHENETHYLAMINES AND METHODS OF PREPARATION THEREOF” (priority 2022, published 2025).
Like-named read-outs stand apart in the source and are kept apart here.

Tests used:
Type in all cases: cell-based
5-HT2C receptor = molecular target: T1, 5-HT2C receptor (Homo sapiens, UniProt P28335); test: cell-based; conditions: Table 2; for EC50: at least three replicate trials, read-out: 5-HT2C BRET EC50; for 5-HT2C BRET Eff %: normalized to % 5-HT stimulation
T1 construct: expressed in transfected cells; host or cells: HEK293T
T1 sequence (P28335 33-458): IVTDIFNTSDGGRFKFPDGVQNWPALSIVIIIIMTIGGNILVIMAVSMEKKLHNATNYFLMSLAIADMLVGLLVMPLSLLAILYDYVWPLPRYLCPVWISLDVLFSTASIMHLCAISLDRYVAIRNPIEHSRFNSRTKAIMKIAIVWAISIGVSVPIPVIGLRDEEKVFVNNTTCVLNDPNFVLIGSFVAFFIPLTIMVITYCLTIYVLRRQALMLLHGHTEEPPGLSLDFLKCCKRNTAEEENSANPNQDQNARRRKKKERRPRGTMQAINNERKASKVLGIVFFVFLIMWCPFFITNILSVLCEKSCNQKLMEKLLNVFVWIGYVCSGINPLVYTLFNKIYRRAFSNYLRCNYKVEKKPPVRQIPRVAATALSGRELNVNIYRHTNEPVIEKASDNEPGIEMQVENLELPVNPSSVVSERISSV

5-HT2B receptor = molecular target: T2, 5-HT2B receptor (Homo sapiens, UniProt P41595); test: 5-HT2B Gq dissociation BRET functional assay; conditions: Table 2; for EC50: at least three replicate trials; for 5-HT2B BRET Eff %: normalized to % 5-HT stimulation
T2 construct: expressed in transfected cells; host or cells: HEK293T

5-HT2A receptor = molecular target: T3, 5-HT2A receptor (Homo sapiens, UniProt P28223); test: 5-HT2A Gq dissociation BRET functional assay; conditions: Table 2; for EC50: at least three replicate trials; for 5-HT2A BRET Eff %: normalized to % 5-HT stimulation
T3 construct: expressed in transfected cells; host or cells: HEK293T
T3 sequence (P28223 whole entry): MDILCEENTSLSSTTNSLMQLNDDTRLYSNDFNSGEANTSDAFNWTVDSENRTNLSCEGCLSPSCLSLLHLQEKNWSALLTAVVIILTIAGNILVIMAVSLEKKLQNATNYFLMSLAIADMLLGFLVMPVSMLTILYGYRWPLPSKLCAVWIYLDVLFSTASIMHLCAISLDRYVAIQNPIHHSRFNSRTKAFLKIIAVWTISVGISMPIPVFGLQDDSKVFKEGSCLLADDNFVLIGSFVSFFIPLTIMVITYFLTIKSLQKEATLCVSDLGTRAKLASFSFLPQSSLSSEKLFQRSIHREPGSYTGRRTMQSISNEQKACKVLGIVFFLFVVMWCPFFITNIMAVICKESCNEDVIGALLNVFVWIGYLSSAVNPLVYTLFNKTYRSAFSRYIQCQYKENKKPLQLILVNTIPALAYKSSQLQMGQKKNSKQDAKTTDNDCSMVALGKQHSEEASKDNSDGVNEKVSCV

T2 sequence (P41595 whole entry): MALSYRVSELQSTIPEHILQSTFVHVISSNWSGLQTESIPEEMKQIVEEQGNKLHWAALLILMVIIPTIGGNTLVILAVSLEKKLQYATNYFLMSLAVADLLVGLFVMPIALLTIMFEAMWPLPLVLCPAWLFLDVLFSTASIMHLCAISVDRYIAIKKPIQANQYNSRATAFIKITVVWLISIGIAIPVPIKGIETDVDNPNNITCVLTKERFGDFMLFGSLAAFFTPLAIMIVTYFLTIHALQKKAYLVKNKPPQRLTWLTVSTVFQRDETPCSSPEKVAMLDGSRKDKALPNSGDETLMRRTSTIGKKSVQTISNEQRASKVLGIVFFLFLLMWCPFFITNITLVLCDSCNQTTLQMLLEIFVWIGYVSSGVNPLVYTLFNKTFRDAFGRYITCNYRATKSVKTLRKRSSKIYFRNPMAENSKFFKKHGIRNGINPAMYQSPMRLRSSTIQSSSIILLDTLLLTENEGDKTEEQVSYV

| SMILES | EC50 (5-HT2C receptor) | 5-HT2C BRET Eff % (5-HT2C receptor) | EC50 (5-HT2B receptor; 5-HT2B BRET EC50 (nM)) | 5-HT2B BRET Eff % (5-HT2B receptor) | EC50 (5-HT2A receptor; 5-HT2A BRET EC50 (nM)) | 5-HT2A BRET Eff % (5-HT2A receptor) | 5-HT2B BRET EC50 (nM) / Eff % (5-HT2B receptor) | EC50 (5-HT2B receptor; read-out: 5-HT2B BRET EC50) | EC50 (5-HT2A receptor; read-out: 5-HT2A BRET EC50) |
| --- | --- | --- | --- | --- | --- | --- | --- | --- | --- |
| COc1cc(C#N)ccc1CCN(C)Cc1ccccc1Cl [Cpd #88] | 310000 nM | 86% | 4980 nM | 20% | 0.01 nM | 14% |  |  |  |
| COc1cc(C#N)ccc1CCNCc1cccc(Cl)c1 [Cpd #13] | 1840 nM | 96% |  |  | 393 nM | 69% | Inactive |  |  |
| COc1cc(Cc2ccccc2)ccc1CCNCc1ccccc1O [Cpd #126] | 3.8 nM | 111% |  | −23% |  | 99% |  | 0.02 nM | 1.2 nM |
| COc1cc(Oc2ccccc2)ccc1CCN [Cpd #140] | 796 nM | 107% |  |  | 2890 nM | 87% | Inactive |  |  |
| COc1cc(C#N)ccc1CCNCc1ccc(F)cc1 [Cpd #8] | 8740 nM | 79% |  |  | 13100 nM | 52% | Inactive |  |  |
| CSc1ccccc1CNC[C@@H]1CCc2cc(C#N)cc(O)c21 [Cpd #142] | 17600 nM | 108% |  | −20% |  | 68% |  | 18.5 nM | 1960 nM |
| N#Cc1ccc(CCNCc2ccccc2O)c(OC(F)(F)F)c1 [Cpd #115] | 380 nM | 104% |  |  | 212 nM | 94% | Inactive |  |  |
| COc1cc2c(cc1CCNCc1ccccc1O)CCO2 [Cpd #141] | 1.6 nM | 107% | 78.5 nM | 59% | 2.3 nM | 96% |  |  |  |
| COc1ccc(CCNCc2ccccc2SC)c(O)c1 [Cpd #119] | 114 nM | 119% | 2540 nM | 108% | 4.6 nM | 100% |  |  |  |
| COc1ccc(CCNCc2ccccc2O)c(OC)c1 [Cpd #96, reference compound] | 7.2 nM | 109% |  |  | 2.3 nM | 95% | Inactive |  |  |
| N#Cc1ccc(CCNCc2ccccc2OC(F)(F)F)c(O)c1 [Cpd #124] | 21.1 nM | 98% |  | 97% |  | 83% |  | 453 nM | 159 nM |
| COc1cc(C#N)ccc1CCNCC1CC1 [Cpd #133] | 34400 nM | 71% |  | −6% |  | 64% |  | 0.07 nM | 10700 nM |
| CSc1ccccc1CCCNCCc1ccc(C#N)cc1O [Cpd #135] | 121 nM | 65% |  | 15% |  | 51% |  | 502 nM | 423 nM |
| COc1cc(C#N)c(F)cc1CCNCc1ccccc1SC [Cpd #128] | 114 nM | 118% | 723 nM | 109% | 7.8 nM | 99% |  |  |  |
| N#Cc1ccc(CCNCc2ccccc2O)cc1 [Cpd #114] | 322 nM | 92% |  | 11% |  | 88% |  | 6490 nM | 154 nM |
| COc1cc(-c2cncnc2)ccc1CCNCc1ccccc1Cl [Cpd #105] | 1490 nM | 107% |  |  |  | 86% | Inactive |  | 1610 nM |
| COc1ccccc1CNCCc1ccc(F)cc1O [Cpd #130] | 8.7 nM | 101% |  |  | 18 nM | 84% | Inactive |  |  |
| CSc1ccccc1CNCCc1ccc(C(F)F)cc1O [Cpd #123] | 30 nM | 120% | 6720 nM | 95% | 3.2 nM | 96% |  |  |  |
| COc1cc(C#N)ccc1CCNC1COc2ccccc21 (stereo not drawn) [Cpd #52] | 12100 nM | 125% |  |  |  | 69% | Inactive |  | 1040 nM |
| COc1cc(-c2cnoc2)ccc1CCNCc1ccccc1Cl [Cpd #101] | 9520 nM | 116% |  |  |  | 65% | Inactive |  | 270 nM |
| COc1cc(C#N)ccc1CCNCc1cccs1 [Cpd #138] | 198 nM | 102% |  | −2% |  | 75% |  | 0.03 nM | 187 nM |
| COc1cc(C#N)ccc1CCNCc1c(Cl)cccc1Cl [Cpd #58] | 2170 nM | 85% |  |  | 496 nM | 79% | Inactive |  |  |
| COc1cc(Oc2ccccc2)ccc1CCNCc1ccccc1O [Cpd #127] | 148 nM | 104% |  | −20% |  | 100% |  | 3.8 nM | 27.1 nM |
| NCCc1c[nH]c2ccc(O)cc12 [5-hydroxytryptamine (serotonin), 5-hydroxytryptamine, reference compound] |  |  |  |  |  | 100% |  |  |  |
